Assay: In vivo biodistribution of co-delivered barcoded LNPs by Next Generation Sequencing of barcodes in tissues
Set-up: species or system BALB/c mice
Conditions: liver, kidney, lung, heart and brain; tail vein, 0.01 mg/kg per barcoded payload; compared with formulations using Lipids 1 and 3
Experimental: LNP/barcode complexes were prepared as described in Example 5. LNP/Barcode complex formulations were made by mixing different LNP/Barcode complex formulations together in equal parts (unless otherwise noted), to form Study Groups 1 and 2. Study Group 1 was dosed with a complex formulation that included formulations F-1, F-2, F-3, F-4, F-5, F-6, F-7, F-8 and F-16 in equal parts. Study Group 2 was dosed with a complex formulation that included formulations F-9, F-10, F-11, F-12, F-13, F-14, F-15, F-16 and F-17 in equal parts, except for F-10 which was mixed at 1/10th the concentration. BALB/c mice were injected via tail vein with 0.01 mg/kg (per unique barcoded payload, except for oRNA2A in F-10, which was dosed at 0.001 mg/kg) for each of Study Groups 1 and 2 in a total volume of 5 mL/kg. Each Study Group was dosed in 6 mice, and an additional 3 mice were dosed with PBS control. At 6 hr post injection, 3 animals from Study Group 1 were humanely euthanized by CO2 inhalation and organs including liver, spleen, lung, heart, kidney, brain, and blood were collected and snap frozen using liquid nitrogen. […] BLI images were detected in the auto-exposure mode. The BLI signal was quantitated using Living Image 4.7 software (Perkin Elmer) following the manufacturer's instruction. After BLI analysis the weights of the collected organs was measured. […]

delivery to organs (barcode ratios normalized to the input material): superior delivery in most organs tested
SMILES: CCCCCCCCCCCCCCCCCC[N+](C)(CCCCCCCCCCCCCCCCCC)CCNC(=N)N.[Cl-] [Lipid 2]

— US20240200118A1, “COMPOSITIONS AND METHODS FOR OPTIMIZING TROPISM OF DELIVERY SYSTEMS FOR RNA” (Renagade Therapeutics Management Inc., priority 2021, published 2024)
